We go through 3 molecules from patent publication US20250002527A1, “STEROID COMPOUND AND CONJUGATE THEREOF” (DUALITY BIOLOGICS (SUZHOU) CO., LTD., priority 2021, published 2025).

Common to all, as to assay type: cell-based
Experiment [1] deals with T1, glucocorticoid receptor (Homo sapiens, UniProt P04150).
T1 construct: expressed in transfected cells; host or cells: HEK293
T1 sequence (P04150 1-777): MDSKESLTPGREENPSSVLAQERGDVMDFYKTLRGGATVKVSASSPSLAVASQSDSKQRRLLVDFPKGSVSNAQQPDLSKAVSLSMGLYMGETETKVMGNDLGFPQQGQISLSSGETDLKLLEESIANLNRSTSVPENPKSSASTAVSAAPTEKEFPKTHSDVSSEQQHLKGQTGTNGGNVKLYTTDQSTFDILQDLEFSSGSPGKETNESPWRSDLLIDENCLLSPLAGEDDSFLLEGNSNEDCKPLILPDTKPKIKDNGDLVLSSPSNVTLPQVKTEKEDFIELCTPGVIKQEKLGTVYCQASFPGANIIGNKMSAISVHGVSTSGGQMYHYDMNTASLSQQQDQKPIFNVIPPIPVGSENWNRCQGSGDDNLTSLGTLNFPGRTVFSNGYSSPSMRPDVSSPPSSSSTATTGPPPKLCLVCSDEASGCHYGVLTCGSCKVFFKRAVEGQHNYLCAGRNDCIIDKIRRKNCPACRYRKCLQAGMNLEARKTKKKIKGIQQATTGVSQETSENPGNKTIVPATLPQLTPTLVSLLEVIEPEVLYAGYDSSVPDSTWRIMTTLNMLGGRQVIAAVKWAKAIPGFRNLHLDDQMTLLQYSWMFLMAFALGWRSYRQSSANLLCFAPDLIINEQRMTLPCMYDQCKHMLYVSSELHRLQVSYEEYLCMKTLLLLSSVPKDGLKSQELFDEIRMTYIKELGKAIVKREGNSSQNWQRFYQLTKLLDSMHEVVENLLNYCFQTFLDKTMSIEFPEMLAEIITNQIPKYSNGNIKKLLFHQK
In words: Measurement 1 of glucocorticoid receptor reporter gene GRE activity. As to conditions: HEK293 transfected with pGL5 and pBIND-GR, 24 hours. As for the experimental part:
(§1) HEK293 cells were cultured in DMEM+10% FBS medium in a carbon dioxide incubator humidified at 37° C. at 5% carbon dioxide.
The prepared transfection mixtures were added to 10 mL of the cell density-adjusted resuspension, mixed well by turning the mixtures upside down, and seeded into a 96-well plate at a volume of 100 μL/well.
(§2) The test plate was detected using the Dual-Glo Luciferase Assay System kit from Promega, and the fluorescence signal of Firefly Luciferase and the fluorescence signal of Renilla Luciferase were read using Enspire, respectively.
The final measurement value was a normalized value “F/R” obtained by dividing the Firefly Luciferase fluorescent signal by the Renilla Luciferase fluorescent signal.
The data were copied and pasted into Excel, and the activation rate was obtained through an equation.
The data were imported into MS Excel and subjected to curve fitting by using XLFit excel add-in version 5.4.0.8 to obtain an EC50 value.
(§3) Y is the agonism and X is the concentration of the compound.
On the technique in general: Reporter assays use an easily measured gene product as a stand-in for the process of interest.

In experiment [2] the target is T2, ERα (Homo sapiens, UniProt P03372).
T2 sequence (P03372 311-547 limits assumed): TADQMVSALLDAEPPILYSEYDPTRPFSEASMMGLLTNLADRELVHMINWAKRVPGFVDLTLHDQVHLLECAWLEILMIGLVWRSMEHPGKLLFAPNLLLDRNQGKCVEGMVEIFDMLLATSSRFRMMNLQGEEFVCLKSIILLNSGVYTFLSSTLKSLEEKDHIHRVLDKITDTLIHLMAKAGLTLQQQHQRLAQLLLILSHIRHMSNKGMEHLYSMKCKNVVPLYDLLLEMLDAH
Description: ERα luciferase reporter gene experiment. The conditions noted are these: HEK293 transfected with pBIND-ERα. As for the experimental part:
as §1
(§4) • 1) HEK293 cells were trypsinized, and the HEK293 cell resuspension was adjusted to 200,000 cell/mL in medium (96 well plate: 100 μL/well). • 2) Transfection reagent mixtures were prepared according to the table below, mixed well and left at room temperature for 20 minutes.
(§5) • 3) The prepared transfection mixtures were added to 10 mL of the cell density-adjusted resuspension, mixed well by turning the mixtures upside down, and seeded into a 96-well plate at a volume of 100 μL/well. • 4) The 96-well plate was incubated in a humidified incubator at 37° C. and 5% carbon dioxide for 24 hours.
as §2, §3

The target in experiment [3] is T3, MR (Homo sapiens, UniProt P08235).
T3 construct: expressed in transfected cells; host or cells: HEK293
T3 sequence (P08235 1-984): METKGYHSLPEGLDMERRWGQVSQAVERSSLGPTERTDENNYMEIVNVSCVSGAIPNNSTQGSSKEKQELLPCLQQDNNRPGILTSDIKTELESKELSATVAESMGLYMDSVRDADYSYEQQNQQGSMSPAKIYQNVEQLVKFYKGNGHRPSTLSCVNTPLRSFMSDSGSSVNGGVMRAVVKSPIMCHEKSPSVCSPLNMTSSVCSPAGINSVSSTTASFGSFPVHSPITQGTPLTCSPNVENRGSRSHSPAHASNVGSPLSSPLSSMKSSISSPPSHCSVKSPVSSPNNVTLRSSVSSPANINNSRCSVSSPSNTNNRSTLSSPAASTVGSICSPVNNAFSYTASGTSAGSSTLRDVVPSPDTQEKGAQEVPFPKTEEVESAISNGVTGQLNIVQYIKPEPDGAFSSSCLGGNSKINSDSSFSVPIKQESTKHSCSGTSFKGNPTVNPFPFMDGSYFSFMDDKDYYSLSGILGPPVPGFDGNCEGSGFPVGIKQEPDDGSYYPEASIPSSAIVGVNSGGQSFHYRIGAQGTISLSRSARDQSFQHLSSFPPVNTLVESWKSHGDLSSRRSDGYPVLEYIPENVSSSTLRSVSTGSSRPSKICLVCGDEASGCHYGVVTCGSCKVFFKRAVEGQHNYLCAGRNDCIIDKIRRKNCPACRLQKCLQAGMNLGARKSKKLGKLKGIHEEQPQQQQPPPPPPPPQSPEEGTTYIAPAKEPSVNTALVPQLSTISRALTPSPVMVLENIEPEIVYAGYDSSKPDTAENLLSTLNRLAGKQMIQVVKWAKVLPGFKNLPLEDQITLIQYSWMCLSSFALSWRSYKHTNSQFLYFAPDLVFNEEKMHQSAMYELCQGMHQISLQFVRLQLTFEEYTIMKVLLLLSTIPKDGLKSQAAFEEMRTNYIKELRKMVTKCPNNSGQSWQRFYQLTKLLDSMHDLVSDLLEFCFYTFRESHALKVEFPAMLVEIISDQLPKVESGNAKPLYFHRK
In words: MR luciferase reporter gene experiment. As to conditions: HEK293 transfected with pBIND-MR. As for the experimental part:
as §1, §4, §5, §2, §3

The target in experiment [4] is T1, glucocorticoid receptor. Description: Measurement 2 of glucocorticoid receptor reporter gene GRE activity (HEK293 GRE cells). As to conditions: 24 hours.
The test system of experiment [5] is human PBMC cells. Description: IFN-α secretion from PBMC under R848 stimulation (compounds). As to conditions: R848 5 μM, 24 hours, mean ± standard deviation. As for the experimental part: The compounds of the present application were tested for their inhibitory effect on the production of peripheral blood monocytes. The peripheral blood monocytes were treated in vitro with the ligand-drug conjugate at different concentrations, and IFNα and TNFα generated by the peripheral blood monocytes were quantitatively detected after a certain time. The compounds of the present invention were evaluated for in-vitro activity.
The cryopreserved human PBMC cells were resuspended in a complete medium and counted, and the cell suspension was adjusted to 2.5×10*6 cells/mL with the culture medium. After the suspension was centrifuged to collect the cells the next day, the cells were resuspended using fresh culture medium. Test compounds were diluted to 4-fold final concentration in cell culture medium, 50 μL of the compounds were added into a 96-well cell plate, and 100 μL of diluted cells ([…]) were added into each well of the 96-well plate containing the compounds, followed by addition of 50 μL R848 to a final concentration of 5 μM. The cell plate was incubated at 37° C. with 5% CO2 for 24 hours. The supernatant was collected, and the TNF-α and IFN-α concentration levels in the supernatant were detected using an ELISA kit.
50 μL of biotinylated antibody working solution was added into each well. After mixing well, the plate was covered with the plate-sealing membrane and incubated at room temperature for 3 hours. […] The procedure was repeated for 3 times. 100 μL of Streptavidin-HRP working solution was added into each well. The plate was covered with the plate-sealing membrane and incubated at room temperature for 20 minutes. The plate was washed for 3 times, 100 μL of TMB liquid was added into each well, and the plate was incubated for 25 minutes at room temperature (18-25° C.) in the dark. The reaction was stopped by adding 100 μL stop solution rapidly to each well. The reading at a wavelength of 450 nm was detected by an M2e instrument within 10 minutes after termination.
The contents of TNF-α and IFN-α were calculated from the OD450 values.

For orientation: EC50 means the concentration needed to bring the measured effect to its halfway point. A high value points to a less potent agent. `C[C@]12C=CC(=O)C=C1CC[C@@H]1[C@@H]2[C@@H](O)C[C@@]2(C)[C@H]1C[C@H]1O[C@H](c3ccc(Cc4ccc(CO)cc4)cc3)O[C@]12C(=O)CO` [Compound 4S] showed a 50% effective concentration (EC50) in experiment [1] of 1.42 nM.
As for `C[C@]12C=CC(=O)C=C1CC[C@@H]1[C@@H]2[C@@H](O)C[C@@]2(C)[C@H]1C[C@H]1O[C@@H](c3ccc(Cc4cccc(CO)c4)cc3)O[C@]12C(=O)CO` [Compound 3], the 50% effective concentration (EC50) in experiment [2] and in experiment [3] was more than 1000 nM each time.
With `C[C@]12C=CC(=O)C=C1CC[C@@H]1[C@@H]2[C@@H](O)C[C@@]2(C)[C@H]1C[C@H]1O[C@@H](c3ccc(Cc4ccc(CO)c(N)c4)cc3)O[C@]12C(=O)CO` [Compound 6], the EC50 in experiment [4] came to 0.12 nM. The “IFN-α secretion (pg/mL) from PBMC under R848 stimulation” value is listed as 99.8 ± +5.7 pg/mL in experiment [5] (compound 4 nM), 45.9 ± 45.9 pg/mL in experiment [5] (compound 20 nM) and 6.9 ± 6.9 pg/mL in experiment [5] (compound 100 nM).
